Active and inactive are the calls of the source.
Tests used:
Large T antigen = Large T antigen (Simian virus 40, UniProt P03070); type: functional, Betapolyomavirus macacae;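 also: Confirmatory-stage PubChem screen for compounds that inhibit SV40 T antigen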
[1] = target: T1, Carboxy-terminal domain RNA polymerase II polypeptide A small phosphatase 1 (Homo sapiens, UniProt Q9GZU7); assay: inhibitors of CTDSP1, concentration-response testing, biochemical assay, absorbance-based, actives from ultra-high-throughput screening (AID 540297); type: functional
T1 sequence (Q9GZU7 whole entry): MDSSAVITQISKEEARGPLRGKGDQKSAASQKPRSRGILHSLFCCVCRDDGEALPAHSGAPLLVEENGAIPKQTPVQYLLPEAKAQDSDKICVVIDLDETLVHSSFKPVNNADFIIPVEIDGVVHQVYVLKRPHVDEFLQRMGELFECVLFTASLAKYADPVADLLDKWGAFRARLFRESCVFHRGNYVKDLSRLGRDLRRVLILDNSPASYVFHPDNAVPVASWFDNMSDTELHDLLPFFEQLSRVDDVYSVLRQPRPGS

Protein Wnt-3a = Protein Wnt-3a (Mus musculus, UniProt P27467); assay: Wnt3a-driven reporter signaling inhibition, dose response, selectivity assay for Gli-SUFU antagonist project, Wnt-LIGHT cells, luminescence (AID 651570); type: functional; details: read-out: IC50_Mean;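 also: Wnt-LIGHT reporter cells stimulated with conditioned medium from Wnt3a-producing cells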
[2] = A Cell Based Secondary Assay To Explore Cytotoxicity of Compounds that Sensitize Mycobacterium Tuberculosis to Beta-Lactam Antibiotics.; type: functional
[3] = cytotoxicity in HEK-293T cells, dose response, cytotoxicity control for TCR NF-kB inhibitor project, luminescence, T-cell screen hits (AID 489026); type: functional, cell-based;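 also: cells exposed to compound about 14 hours before the viability readout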
[4] = target: Luciferin 4-monooxygenase (Photinus pyralis, UniProt P08659); assay: firefly luciferase enzyme inhibitors, dose response, biochemical, luminescence (AID 1891)
[5] = Luminescence Cell-Based Dose Confirmation HTS to Identify Inhibitors of Platelet Dense Granule Release. [Related pubchem assays: 1663 (Primary HTS), 1678 (Summary of Project)]; type: functional
HEK293 = assay: inhibitors of LMP1-driven NF-kB reporter, dose response, cell-based, HEK293, luciferase, cherry-pick (AID 588343); type: functional; details: Homo sapiens
Protein skinhead-1 = target: T2, Protein skinhead-1 (Caenorhabditis elegans, UniProt P34707); type: functional
T2 sequence (P34707 whole entry): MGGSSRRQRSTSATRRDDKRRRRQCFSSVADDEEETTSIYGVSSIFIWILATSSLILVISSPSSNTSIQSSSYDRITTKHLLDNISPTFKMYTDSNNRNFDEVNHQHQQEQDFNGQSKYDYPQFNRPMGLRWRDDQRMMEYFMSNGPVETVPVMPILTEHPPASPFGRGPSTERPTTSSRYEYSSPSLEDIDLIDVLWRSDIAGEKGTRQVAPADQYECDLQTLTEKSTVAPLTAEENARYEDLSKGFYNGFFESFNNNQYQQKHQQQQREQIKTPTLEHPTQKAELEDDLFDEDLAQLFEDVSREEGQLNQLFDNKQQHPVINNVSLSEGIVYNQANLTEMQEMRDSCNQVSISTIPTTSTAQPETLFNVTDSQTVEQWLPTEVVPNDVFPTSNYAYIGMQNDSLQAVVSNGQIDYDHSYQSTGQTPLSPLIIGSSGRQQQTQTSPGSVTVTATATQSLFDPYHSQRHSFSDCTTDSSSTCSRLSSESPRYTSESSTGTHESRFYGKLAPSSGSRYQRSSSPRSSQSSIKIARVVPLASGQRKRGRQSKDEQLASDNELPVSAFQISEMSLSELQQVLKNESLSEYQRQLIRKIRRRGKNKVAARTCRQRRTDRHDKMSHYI

[6] = LGR2 antagonists, dose response, cell-based, HEK293, CRE-luciferase reporter, cherry pick, set 2 (AID 743343); type: functional;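 also: transfected cells were stimulated with diluted bursicon conditioned medium after compound addition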
[7] = MC4R antagonists, dose response, counter-screen for LGR2 antagonist project, cell-based, plate reader, cherry pick (AID 743444); type: functional;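 also: transfected HEK 293 cells stimulated with alpha-MSH peptide; potency of inhibitors of the alpha-MSH evoked signal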
[8] = HEK293 cell cytotoxicity, dose response, cytotoxicity control, plate reader, cherry-picked samples (AID 743446); type: functional, cell-based
[9] = A549 cell cytotoxicity, dose response, cytotoxicity control, plate reader, cherry-pick, antagonist series (AID 743412); type: functional, cell-based
[10] = target: Glucose-6-phosphate 1-dehydrogenase (Homo sapiens, UniProt P11413); assay: human G6PD enzyme inhibitors, dose response, selectivity assay for P. falciparum G6PD inhibitor project, biochemical, fluorescence (AID 504792); type: functional
[11] = target: T3, Rac GTPase-activating protein 1 (Homo sapiens, UniProt Q9H0H5); assay: MgcRacGAP GTPase-activating activity inhibitors, confirmation, biochemical, ADP Hunter fluorescence, primary and confirmatory (AID 624330); type: functional
T3 sequence (Q9H0H5 whole entry): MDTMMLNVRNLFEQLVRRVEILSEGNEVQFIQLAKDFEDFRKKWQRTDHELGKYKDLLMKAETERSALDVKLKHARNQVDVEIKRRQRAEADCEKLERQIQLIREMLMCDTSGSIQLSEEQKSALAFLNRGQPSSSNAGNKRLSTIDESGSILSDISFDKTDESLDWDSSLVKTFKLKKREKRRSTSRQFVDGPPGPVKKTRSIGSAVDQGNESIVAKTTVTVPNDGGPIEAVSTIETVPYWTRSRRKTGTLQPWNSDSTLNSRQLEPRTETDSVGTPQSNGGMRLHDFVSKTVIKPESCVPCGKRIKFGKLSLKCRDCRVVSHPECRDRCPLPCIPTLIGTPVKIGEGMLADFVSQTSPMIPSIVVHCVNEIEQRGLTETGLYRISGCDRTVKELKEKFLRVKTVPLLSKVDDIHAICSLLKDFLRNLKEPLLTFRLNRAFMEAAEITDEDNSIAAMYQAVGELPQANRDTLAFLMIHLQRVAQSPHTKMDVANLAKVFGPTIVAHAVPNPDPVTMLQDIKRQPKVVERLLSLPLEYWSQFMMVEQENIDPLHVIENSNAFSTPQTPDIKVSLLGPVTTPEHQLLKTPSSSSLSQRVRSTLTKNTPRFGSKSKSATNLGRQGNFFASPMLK

[12] = inhibitors of intracellular T. cruzi replication, confirmation, NIH3T3 host cells, beta-gal luminescence (AID 2044); type: functional, cell-based;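 also: intracellular parasites grown in NIH/3T3 mouse fibroblasts as host cells; luminescent beta-galactosidase reporter signal from transgenic T. cruzi replicating inside host cells; inhibitors lower the luminescence signal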
[13] = cytotoxicity toward NIH3T3 fibroblasts, dose response, counter-screen, cell-based, ATP luminescence, mouse fibroblasts (AID 2010); type: functional;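 also: cells exposed to compound for about 90 hours before reading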
[14] = Vero E6 cell cytotoxicity, dose response, cytotoxicity control for non-replicating M. tuberculosis project, secondary assay (AID 492998); type: functional, VeroE6; details: Vero C1008
cells = type: functional
Melanocortin receptor 4 = Melanocortin receptor 4 (Homo sapiens, UniProt P32245); type: functional, cell-based;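 also: Cell-based assay with luminescence read-out, confirmatory dose-response testing for agonist activity of biased ligands at MC4R; human U2OS cells with tagged receptor and beta-arrestin; potency of agonists that increase receptor coupling to beta-arrestin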
Leucine aminopeptidase = target: T4, Leucine aminopeptidase (Plasmodium falciparum 3D7, UniProt Q8IL11); assay: P. falciparum M17LAP inhibitors, primary screen, biochemical, fluorogenic H-Leu-NHMec substrate, 1536-well (AID 1619); type: functional
T4 sequence (Q8IL11 whole entry): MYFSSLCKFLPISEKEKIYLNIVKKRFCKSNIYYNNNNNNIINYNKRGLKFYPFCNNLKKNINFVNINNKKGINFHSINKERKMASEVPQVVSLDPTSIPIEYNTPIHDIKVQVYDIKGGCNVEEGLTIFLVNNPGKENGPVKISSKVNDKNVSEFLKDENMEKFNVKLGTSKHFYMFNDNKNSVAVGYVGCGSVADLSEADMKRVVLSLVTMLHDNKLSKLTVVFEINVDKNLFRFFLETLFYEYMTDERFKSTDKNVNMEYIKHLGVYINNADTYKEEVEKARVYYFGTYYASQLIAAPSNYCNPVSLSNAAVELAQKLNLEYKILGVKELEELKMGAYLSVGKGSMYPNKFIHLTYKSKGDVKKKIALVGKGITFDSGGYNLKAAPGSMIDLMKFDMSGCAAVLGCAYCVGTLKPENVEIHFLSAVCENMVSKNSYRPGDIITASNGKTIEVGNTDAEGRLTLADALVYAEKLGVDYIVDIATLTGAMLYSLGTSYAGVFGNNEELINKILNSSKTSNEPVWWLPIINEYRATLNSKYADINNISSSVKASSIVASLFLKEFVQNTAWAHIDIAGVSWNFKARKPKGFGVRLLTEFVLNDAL

[15] = target: Heat shock protein HSP 90-alpha (Homo sapiens, UniProt P07900); type: functional, organism-based
Vero = assay: cells; type: functional; details: Chlorocebus sabaeus
[16] = Shn3 3'UTR reporter inhibitors, dose response, cell-based, Clone20 osteoblasts, firefly luciferase, cherry-picked (AID 624132); type: functional;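 also: firefly luciferase luminescence from reporter carrying the Shn3 3'UTR in osteoblasts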
[17] = HepG2 cell cytotoxicity, dose response, cytotoxicity control for Shn3 inhibitor project, CellTiter-Glo, cherry-picked (AID 624134); type: functional, cell-based
[18] = control 3'UTR Renilla luciferase suppression, dose response, counter-screen for Shn3 inhibitor project, cell-based, Clone20-Shn3RL, cherry-picked (AID 624133); type: functional

Glucose-6-phosphate 1-dehydrogenase, sequence (P11413 whole entry): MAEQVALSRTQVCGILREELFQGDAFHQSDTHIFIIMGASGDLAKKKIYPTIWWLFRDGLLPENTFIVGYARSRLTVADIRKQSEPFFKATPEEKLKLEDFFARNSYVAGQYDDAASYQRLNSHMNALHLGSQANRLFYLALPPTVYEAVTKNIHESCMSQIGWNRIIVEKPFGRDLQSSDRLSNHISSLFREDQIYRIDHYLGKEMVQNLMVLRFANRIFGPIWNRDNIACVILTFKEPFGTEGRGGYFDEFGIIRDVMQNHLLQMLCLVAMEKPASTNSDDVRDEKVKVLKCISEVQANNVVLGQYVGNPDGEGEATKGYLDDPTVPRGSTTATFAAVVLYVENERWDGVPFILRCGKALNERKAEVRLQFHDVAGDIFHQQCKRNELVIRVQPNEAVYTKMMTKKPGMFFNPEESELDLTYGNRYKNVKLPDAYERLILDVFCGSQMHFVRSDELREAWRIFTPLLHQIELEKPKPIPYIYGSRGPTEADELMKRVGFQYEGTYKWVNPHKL
Luciferin 4-monooxygenase, sequence (P08659 whole entry): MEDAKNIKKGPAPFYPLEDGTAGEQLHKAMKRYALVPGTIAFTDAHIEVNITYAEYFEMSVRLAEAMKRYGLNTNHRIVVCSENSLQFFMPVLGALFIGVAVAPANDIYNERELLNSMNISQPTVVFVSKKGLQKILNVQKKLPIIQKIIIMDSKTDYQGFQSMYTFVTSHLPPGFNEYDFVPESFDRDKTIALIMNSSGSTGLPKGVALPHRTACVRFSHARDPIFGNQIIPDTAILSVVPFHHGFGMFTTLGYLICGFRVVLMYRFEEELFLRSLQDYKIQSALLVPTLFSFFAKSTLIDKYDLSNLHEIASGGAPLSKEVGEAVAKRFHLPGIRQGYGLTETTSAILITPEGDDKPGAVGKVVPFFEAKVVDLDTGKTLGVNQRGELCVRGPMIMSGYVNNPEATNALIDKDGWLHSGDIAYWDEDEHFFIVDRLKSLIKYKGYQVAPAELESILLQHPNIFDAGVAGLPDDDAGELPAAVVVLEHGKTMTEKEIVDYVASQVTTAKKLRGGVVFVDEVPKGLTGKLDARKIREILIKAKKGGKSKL
Protein Wnt-3a, sequence (P27467 whole entry): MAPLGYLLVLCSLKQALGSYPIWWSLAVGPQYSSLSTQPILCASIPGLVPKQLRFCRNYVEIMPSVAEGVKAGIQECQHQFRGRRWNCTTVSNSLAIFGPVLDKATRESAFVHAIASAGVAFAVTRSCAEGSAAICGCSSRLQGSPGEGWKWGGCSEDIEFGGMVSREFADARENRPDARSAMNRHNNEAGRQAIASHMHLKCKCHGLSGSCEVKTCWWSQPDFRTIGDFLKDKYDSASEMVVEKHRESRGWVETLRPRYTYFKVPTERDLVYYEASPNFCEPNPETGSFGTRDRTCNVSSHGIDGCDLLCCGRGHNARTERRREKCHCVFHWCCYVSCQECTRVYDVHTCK
Melanocortin receptor 4, sequence (P32245 whole entry): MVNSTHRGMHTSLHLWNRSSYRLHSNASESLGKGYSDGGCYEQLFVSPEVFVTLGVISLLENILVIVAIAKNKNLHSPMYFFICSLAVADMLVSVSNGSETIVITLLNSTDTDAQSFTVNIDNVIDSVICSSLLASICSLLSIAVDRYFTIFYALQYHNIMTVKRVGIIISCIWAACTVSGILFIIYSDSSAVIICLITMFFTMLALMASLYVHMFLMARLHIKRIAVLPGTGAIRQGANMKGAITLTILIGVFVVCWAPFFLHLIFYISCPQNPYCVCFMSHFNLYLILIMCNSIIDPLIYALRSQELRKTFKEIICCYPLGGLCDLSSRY
Large T antigen, sequence (P03070 whole entry, the tested form may be a part): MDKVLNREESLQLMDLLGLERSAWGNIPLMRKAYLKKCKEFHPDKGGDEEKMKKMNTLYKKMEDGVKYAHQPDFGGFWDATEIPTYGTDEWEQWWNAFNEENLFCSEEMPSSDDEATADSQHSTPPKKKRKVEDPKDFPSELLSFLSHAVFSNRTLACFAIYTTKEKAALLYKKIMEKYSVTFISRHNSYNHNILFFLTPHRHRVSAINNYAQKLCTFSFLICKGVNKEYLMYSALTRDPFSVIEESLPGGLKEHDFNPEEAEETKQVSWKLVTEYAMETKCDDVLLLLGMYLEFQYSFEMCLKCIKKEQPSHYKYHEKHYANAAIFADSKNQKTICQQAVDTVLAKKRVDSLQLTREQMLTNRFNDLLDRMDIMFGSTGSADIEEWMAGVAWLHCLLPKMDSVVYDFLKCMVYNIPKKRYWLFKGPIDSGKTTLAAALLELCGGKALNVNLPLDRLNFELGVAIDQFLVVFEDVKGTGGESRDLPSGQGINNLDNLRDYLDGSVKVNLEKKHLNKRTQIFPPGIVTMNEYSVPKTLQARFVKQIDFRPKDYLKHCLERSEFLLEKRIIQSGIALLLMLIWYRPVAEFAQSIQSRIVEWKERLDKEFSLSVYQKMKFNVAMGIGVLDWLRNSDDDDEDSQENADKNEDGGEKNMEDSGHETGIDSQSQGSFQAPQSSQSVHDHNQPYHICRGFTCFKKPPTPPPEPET

SMILES: C[N+]1(CCCCSc2ccc(O)cc2)CCCCC1
- IC50 (Large T antigen): 12.1 µM (active)
- IC50 [1]: 6.89 µM (active)

SMILES: Cc1nc2ccccc2n1CC(=O)NC(C)C1CC2CCC1C2 (stereo not drawn)
- IC50 (Protein Wnt-3a): 4.3 µM (active)

SMILES: NS(=O)(=O)c1ccc(Sc2nc3ccccc3s2)c([N+](=O)[O-])c1
- CC50 [2]: 13 µM (active)
- IC50 [3]: > 80 µM (inactive)

SMILES: COc1ccc(-c2nc(-c3cccs3)no2)cc1
- EC50 [4]: 1.59 µM (active)
- EC50 [5]: 18.7 µM (active)
- AC50 (HEK293): 1.7 µM (active)
- IC50 (Protein skinhead-1): > 100 µM (inactive)
- AC50 [6]: 2.18 µM (active)
- AC50 [7]: 3.02 µM (active)
- AC50 [8]: > 52 µM (inactive)

SMILES: CCOc1ccc(-c2ccc(SCC)nn2)cc1
- AC50 [9]: > 52 µM (inactive)
- AC50 [6]: 7.12 µM (active)
- AC50 [7]: 8.8 µM (active)
- AC50 [8]: > 52 µM (inactive)

SMILES: COc1ccc(Cl)cc1NC(=O)NNC(=O)c1ccccn1
- CC50 [2]: 28.8 µM (active)

SMILES: O=C(Sc1nnc(O)nc1O)c1ccccc1
- IC50 [10]: > 80 µM (inactive)
- IC50 [11]: 224 µM (active)

SMILES: C/C(Cn1nnc([N+](=O)[O-])n1)=N\NC(=O)c1ccccc1O
- IC50 [10]: > 80 µM (inactive)

SMILES: O=C(N/N=C/c1ccc([N+](=O)[O-])s1)c1ccncc1
- EC50 [12]: 838 nM (active)
- EC50 [13]: > 60 µM (not active)
- CC50 [14]: 15.6 µM (active)
- IC50 (cells): 1 µM (active)

SMILES: CC(/C=C/C=C/c1ccccc1)=N/NC(=O)CNc1ccccc1C
- EC50 (Melanocortin receptor 4): > 89.3 µM (inactive)

SMILES: CC1=NNC(=O)C1CCC(=O)N/N=C/c1ccco1 (stereo not drawn)
- IC50 (Leucine aminopeptidase): 69.2 µM (active)
- IC50 [1]: > 80 µM (inactive)

SMILES: CCCCC(=O)NC(c1cccc([N+](=O)[O-])c1)c1ccc2cccnc2c1O (stereo not drawn)
- AC50 (HEK293): 5.92 µM (active)
- AC50 [15]: 2.69 µM (active)
- CC50 (Vero): 1.23 µM (active)
- AC50 [16]: 1 µM (active)
- AC50 [17]: 2.41 µM (active)
- AC50 [18]: 2.08 µM (active)

Reference: ChEMBL document CHEMBL1201862, “PubChem BioAssay data set” (2004)
